Experimental data reported in US10351546B2, “Pyridin-3-yl acetic acid derivatives as inhibitors of human immunodeficiency virus replication” (priority 2015, dated 2019).
Where two headings read alike, the source gives them in different places.

System: NL-RLuc virus
Assay: Inhibition of HIV replication (NL-RLuc luciferase reporter virus in MT-2 cells)
Type: cell-based
Settings: Human immunodeficiency virus 1, MT2, 120 h
Outline: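 MT-2 cells were infected with NL4-3-derived virus carrying Renilla luciferase in place of part of nef, in RPMI/10% FBS, with serial compound dilutions. Luciferase read after 5 days of multicycle replication. EC50 from the median effect equation, at least 2 experiments.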

SMILES | EC50 (read-out: Activity) | EC50 (read-out: EC50 μM)
Cc1cc(F)ccc1CN1CCc2cc(-c3c(CNCC4CCOCC4)nc(C)c([C@H](OC(C)(C)C)C(=O)O)c3N3CCC(C)(C)CC3)ccc2C1 [Example 127, (S)-2-(tert-Butoxy)-2-(4-(4,4-dimethylpiperidin-1-yl)-5-(2-(4-fluoro-2-methylbenzyl)-1,2,3,4-tetrahydroisoquinolin-6-yl)-2-methyl-6-((((tetrahydro-2H-pyran-4-yl)methyl)amino)methyl)pyridin-3-yl)acetic acid] | < 0.1 µM | 
Cc1cc(F)ccc1CN1CCc2cc(-c3c(CN4CCC(F)(F)CC4)nc(C)c([C@H](OC(C)(C)C)C(=O)O)c3N3CCC(C)(C)CC3)ccc2C1 [Example 128, (S)-2-(tert-Butoxy)-2-(6-((4,4-difluoropiperidin-1-yl)methyl)-4-(4,4-dimethylpiperidin-1-yl)-5-(2-(4-fluoro-2-methylbenzyl)-1,2,3,4-tetrahydroisoquinolin-6-yl)-2-methylpyridin-3-yl)acetic acid] | < 0.1 µM | 
Cc1cc(F)ccc1CN1CCc2cc(-c3c(CN4CCCC(F)(F)C4)nc(C)c([C@H](OC(C)(C)C)C(=O)O)c3N3CCC(C)(C)CC3)ccc2C1 [Example 129, (S)-2-(tert-Butoxy)-2-(6-((3,3-difluoropiperidin-1-yl)methyl)-4-(4,4-dimethylpiperidin-1-yl)-5-(2-(4-fluoro-2-methylbenzyl)-1,2,3,4-tetrahydroisoquinolin-6-yl)-2-methylpyridin-3-yl)acetic acid] | < 0.1 µM | 
Cc1cc(F)ccc1CN1CCc2cc(-c3c(CN4CCC(F)CC4)nc(C)c([C@H](OC(C)(C)C)C(=O)O)c3N3CCC(C)(C)CC3)ccc2C1 [Example 130, (S)-2-(tert-Butoxy)-2-(4-(4,4-dimethylpiperidin-1-yl)-5-(2-(4-fluoro-2-methylbenzyl)-1,2,3,4-tetrahydroisoquinolin-6-yl)-6-((4-fluoropiperidin-1-yl)methyl)-2-methylpyridin-3-yl)acetic acid] | < 0.1 µM | 
Cc1cc(F)ccc1CN1CCc2cc(-c3c(CN4CCCC(F)C4)nc(C)c([C@H](OC(C)(C)C)C(=O)O)c3N3CCC(C)(C)CC3)ccc2C1 (stereo partly drawn) [Example 131, (2S)-2-(tert-Butoxy)-2-(4-(4,4-dimethylpiperidin-1-yl)-5-(2-(4-fluoro-2-methylbenzyl)-1,2,3,4-tetrahydroisoquinolin-6-yl)-6-((3-fluoropiperidin-1-yl)methyl)-2-methylpyridin-3-yl)acetic acid] | < 0.1 µM | 
Cc1cc(F)ccc1CN1CCc2cc(-c3c(CN4CC[C@H](F)C4)nc(C)c([C@H](OC(C)(C)C)C(=O)O)c3N3CCC(C)(C)CC3)ccc2C1 [Example 132, (S)-2-(tert-Butoxy)-2-(4-(4,4-dimethylpiperidin-1-yl)-5-(2-(4-fluoro-2-methylbenzyl)-1,2,3,4-tetrahydroisoquinolin-6-yl)-6-(((S)-3-fluoropyrrolidin-1-yl)methyl)-2-methylpyridin-3-yl)acetic acid] | < 0.1 µM | 
Cc1cc(F)ccc1CN1CCc2cc(-c3c(CN4CC[C@@H](F)C4)nc(C)c([C@H](OC(C)(C)C)C(=O)O)c3N3CCC(C)(C)CC3)ccc2C1 [Example 133, (S)-2-(tert-Butoxy)-2-(4-(4,4-dimethylpiperidin-1-yl)-5-(2-(4-fluoro-2-methylbenzyl)-1,2,3,4-tetrahydroisoquinolin-6-yl)-6-(((R)-3-fluoropyrrolidin-1-yl)methyl)-2-methylpyridin-3-yl)acetic acid] | < 0.1 µM | 
Cc1cc(F)ccc1CN1CCc2cc(-c3c(CN4CCC5(CCC5)CC4)nc(C)c([C@H](OC(C)(C)C)C(=O)O)c3N3CCC(C)(C)CC3)ccc2C1 [Example 134, (S)-2-(6-(7-Azaspiro[3.5]nonan-7-ylmethyl)-4-(4,4-dimethylpiperidin-1-yl)-5-(2-(4-fluoro-2-methylbenzyl)-1,2,3,4-tetrahydroisoquinolin-6-yl)-2-methylpyridin-3-yl)-2-(tert-butoxy)acetic acid] | < 0.1 µM | 0.001 µM
Cc1cc(F)ccc1CN1CCc2cc(-c3c(CN4CCC(O)CC4)nc(C)c([C@H](OC(C)(C)C)C(=O)O)c3N3CCC(C)(C)CC3)ccc2C1 [Example 135, (S)-2-(tert-Butoxy)-2-(4-(4,4-dimethylpiperidin-1-yl)-5-(2-(4-fluoro-2-methylbenzyl)-1,2,3,4-tetrahydroisoquinolin-6-yl)-6-((4-hydroxypiperidin-1-yl)methyl)-2-methylpyridin-3-yl)acetic acid] | < 0.1 µM | 
Cc1cc(F)ccc1CN1CCc2cc(-c3c(CN4CCN(C)CC4)nc(C)c([C@H](OC(C)(C)C)C(=O)O)c3N3CCC(C)(C)CC3)ccc2C1 [Example 136, (S)-2-(tert-Butoxy)-2-(4-(4,4-dimethylpiperidin-1-yl)-5-(2-(4-fluoro-2-methylbenzyl)-1,2,3,4-tetrahydroisoquinolin-6-yl)-2-methyl-6-((4-methylpiperazin-1-yl)methyl)pyridin-3-yl)acetic acid] | < 0.1 µM | 
Cc1cc(F)ccc1CN1CCc2cc(-c3c(CN(C)CC4CCOCC4)nc(C)c([C@H](OC(C)(C)C)C(=O)O)c3N3CCC(C)(C)CC3)ccc2C1 [Example 137, (S)-2-(tert-Butoxy)-2-(4-(4,4-dimethylpiperidin-1-yl)-5-(2-(4-fluoro-2-methylbenzyl)-1,2,3,4-tetrahydroisoquinolin-6-yl)-2-methyl-6-((methyl((tetrahydro-2H-pyran-4-yl)methyl)amino)methyl)pyridin-3-yl)acetic acid] | < 0.1 µM | 
Cc1cc(F)ccc1CN1CCc2cc(-c3c(CN4[C@@H]5CC[C@H]4CN(C)C5)nc(C)c([C@H](OC(C)(C)C)C(=O)O)c3N3CCC(C)(C)CC3)ccc2C1 [Example 138, (S)-2-(tert-Butoxy)-2-(4-(4,4-dimethylpiperidin-1-yl)-5-(2-(4-fluoro-2-methylbenzyl)-1,2,3,4-tetrahydroisoquinolin-6-yl)-2-methyl-6-(((1R,5S)-3-methyl-3,8-diazabicyclo[3.2.1]octan-8-yl)methyl)pyridin-3-yl)acetic acid] | < 0.1 µM | 
Cc1cc(F)ccc1CN1CCc2cc(-c3c(CN)nc(C)c([C@H](OC(C)(C)C)C(=O)O)c3N3CCC(C)(C)CC3)ccc2C1 [Example 139, (S)-2-(6-(Aminomethyl)-4-(4,4-dimethylpiperidin-1-yl)-5-(2-(4-fluoro-2-methylbenzyl)-1,2,3,4-tetrahydroisoquinolin-6-yl)-2-methylpyridin-3-yl)-2-(tert-butoxy)acetic acid] | < 0.1 µM | 
CC(=O)NCc1nc(C)c([C@H](OC(C)(C)C)C(=O)O)c(N2CCC(C)(C)CC2)c1-c1ccc2c(c1)CCN(Cc1ccc(F)cc1C)C2 [Example 140, (S)-2-(6-(Acetamidomethyl)-4-(4,4-dimethylpiperidin-1-yl)-5-(2-(4-fluoro-2-methylbenzyl)-1,2,3,4-tetrahydroisoquinolin-6-yl)-2-methylpyridin-3-yl)-2-(tert-butoxy)acetic acid] | < 0.1 µM | 
Cc1nnc(C(=O)NCc2nc(C)c([C@H](OC(C)(C)C)C(=O)O)c(N3CCC(C)(C)CC3)c2-c2ccc3c(c2)CCN(Cc2ccc(F)cc2C)C3)o1 [Example 141, (S)-2-(tert-Butoxy)-2-(4-(4,4-dimethylpiperidin-1-yl)-5-(2-(4-fluoro-2-methylbenzyl)-1,2,3,4-tetrahydroisoquinolin-6-yl)-2-methyl-6-((5-methyl-1,3,4-oxadiazole-2-carboxamido)methyl)pyridin-3-yl)acetic acid] | < 0.1 µM | 
Cc1cc(F)ccc1CN1CCc2cc(-c3c(CNC(=O)C(=O)N(C)C)nc(C)c([C@H](OC(C)(C)C)C(=O)O)c3N3CCC(C)(C)CC3)ccc2C1 [Example 142, (S)-2-(tert-Butoxy)-2-(6-((2-(dimethylamino)-2-oxoacetamido)methyl)-4-(4,4-dimethylpiperidin-1-yl)-5-(2-(4-fluoro-2-methylbenzyl)-1,2,3,4-tetrahydroisoquinolin-6-yl)-2-methylpyridin-3-yl)acetic acid] | < 0.1 µM | 
CC(=O)N(C)Cc1nc(C)c([C@H](OC(C)(C)C)C(=O)O)c(N2CCC(C)(C)CC2)c1-c1ccc2c(c1)CCN(Cc1ccc(F)cc1C)C2 [Example 143, (S)-2-(tert-Butoxy)-2-(4-(4,4-dimethylpiperidin-1-yl)-5-(2-(4-fluoro-2-methylbenzyl)-1,2,3,4-tetrahydroisoquinolin-6-yl)-2-methyl-6-((N-methylacetamido)methyl)pyridin-3-yl)acetic acid] | < 0.1 µM | 
Cc1ncn(Cc2nc(C)c([C@H](OC(C)(C)C)C(=O)O)c(N3CCC(C)(C)CC3)c2-c2ccc3c(c2)CCN(Cc2ccc(F)cc2C)C3)n1 [Example 144, (S)-2-(tert-Butoxy)-2-(4-(4,4-dimethylpiperidin-1-yl)-5-(2-(4-fluoro-2-methylbenzyl)-1,2,3,4-tetrahydroisoquinolin-6-yl)-2-methyl-6-((3-methyl-1H-1,2,4-triazol-1-yl)methyl)pyridin-3-yl)acetic acid] | < 0.1 µM | 0.025 µM
Cc1cc(F)ccc1CN1CCc2cc(-c3c(Cn4ncnc4C)nc(C)c([C@H](OC(C)(C)C)C(=O)O)c3N3CCC(C)(C)CC3)ccc2C1 [Example 145, (S)-2-(tert-butoxy)-2-(4-(4,4-dimethylpiperidin-1-yl)-5-(2-(4-fluoro-2-methylbenzyl)-1,2,3,4-tetrahydroisoquinolin-6-yl)-2-methyl-6-((5-methyl-1H-1,2,4-triazol-1-yl)methyl)pyridin-3-yl)acetic acid] | < 0.1 µM | 
Cc1cc(F)ccc1CN1CCc2cc(-c3c(Cn4cnnc4C)nc(C)c([C@H](OC(C)(C)C)C(=O)O)c3N3CCC(C)(C)CC3)ccc2C1 [Example 146, (S)-2-(tert-butoxy)-2-(4-(4,4-dimethylpiperidin-1-yl)-5-(2-(4-fluoro-2-methylbenzyl)-1,2,3,4-tetrahydroisoquinolin-6-yl)-2-methyl-6-((3-methyl-4H-1,2,4-triazol-4-yl)methyl)pyridin-3-yl)acetic acid] | < 0.1 µM | 
Cc1cc(F)ccc1CN1CCc2cc(-c3c(N)nc(C)c([C@H](OC(C)(C)C)C(=O)O)c3N3CCC(C)(C)CC3)ccc2C1 [Example 147, (S)-2-(6-Amino-4-(4,4-dimethylpiperidin-1-yl)-5-(2-(4-fluoro-2-methylbenzyl)-1,2,3,4-tetrahydroisoquinolin-6-yl)-2-methylpyridin-3-yl)-2-(tert-butoxy)acetic acid] | < 0.1 µM | 
